{
  "source": "patent US7563951B2",
  "about": "“Soybean seeds and plants exhibiting natural herbicide resistance” (Natural Genes, Inc., priority 2002, dated 2009)",
  "tested_on": "soybean seeds",
  "experiment": "Seed pre-soak in 2 percent aqueous glyphosate, then planting and observing germination",
  "assay_type": "in vivo, Glycine max L.",
  "conditions": "six hour soak at room temperature, observed three weeks",
  "from_the_text": "The identification of soybean germplasm within which naturally-occurring herbicide resistance genes reside involved the screening of thirty-four soybean lines obtained from publicly-available seed stocks. The initial step in the screening was to pre-soak individual batches of seeds representing the thirty-four test lines in a 2 percent aqueous solution of glyphosate at room temperature. The individual batches of seeds were immersed in this 2 percent solution for a period of six hours. […] This screening step was essential to determine how seeds responded to the herbicide. Twelve of the varieties were present as approximately 2,500 seeds. There were approximately 5,000 seeds of the remaining 22 varieties. Each variety was immersed in separate containers to assure variety identification and isolation. The varieties that were tested are identified in Table 1.\nAfter this initial pre-soak, each lot of seeds was labeled and was placed in a flat (36″×18″×9″) containing a soil/peat mixture growth medium, with the mixture being 50 percent top soil (sandy loam) and 50 percent peat moss, that was provided at a depth of 9 inches. […]\nGermination and emergence of any seedlings was then observed for the next three weeks. […] Of these five lines, the ‘Dwight’ and ‘Jack’ varieties were chosen for further screening using large quantities of seeds.",
  "data": [
    {"smiles": "O=C(O)CNCP(=O)(O)O", "note": "[glyphosate, N-(phosphonomethyl)glycine]", "values": [
      {"measurement": "Germination of herbicide-treated soybean seeds", "result": "failed to germinate"}
    ]}
  ]
}
